A short description of series [1]: Cytotoxicity against human H460 cells assessed as growth inhibition after 72 hrs by Alamar Blue assay. It counts as functional, cell-based. The conditions noted are these: NCI-H460, 72 h. On the technique in general: The colour change of resazurin is a common sign of viable cells or microbes.
The test system of the next series is HT-29. Briefly: Cytotoxicity against human HT-29 cells assessed as growth inhibition after 72 hrs by Alamar Blue assay. It counts as functional, cell-based. As to conditions: HT-29, 72 h.
Series [2] can be described thus: Cytotoxicity against human H3347 cells assessed as growth inhibition after 72 hrs by Alamar Blue assay. Type of series: functional, cell-based. As to conditions: H3347, 72 h.
In series [3] the test system is CCRF-CEM. Briefly: Cytotoxicity against human CCRF-CEM cells assessed as growth inhibition after 72 hrs by Alamar Blue assay. Type of series: functional, cell-based.
A short description of series [4]: Cytotoxicity against human DLD1 cells assessed as growth inhibition after 72 hrs by Alamar Blue assay. Type of series: functional, cell-based. As to conditions: DLD-1, 72 h.
Series [5] deals with CCRF-CEM. Briefly: Resistance factor, ratio of IC50 for vinblastine-resistant human CCRF-CEM cells to IC50 for human CCRF-CEM cells. It counts as functional.
A short description of series [6]: Cytotoxicity against human H1299 cells assessed as growth inhibition after 72 hrs by Alamar Blue assay. Type of series: functional, cell-based. The conditions noted are these: NCI-H1299, 72 h.
In series [7] the test system is CCRF-CEM. As to the kind of experiment: Cytotoxicity against vinblastine-resistant human CCRF-CEM cells assessed as growth inhibition after 72 hrs by Alamar Blue assay. Type of series: functional, cell-based.
A short description of series [8]: Cytotoxicity against human HCT116 cells assessed as growth inhibition after 72 hrs by Alamar Blue assay. Type of series: functional, cell-based. As to conditions: HCT-116, 72 h.
Series [9] can be described thus: Cytotoxicity against human PC3 cells assessed as growth inhibition after 72 hrs by Alamar Blue assay. The conditions noted are these: PC-3, 72 h. Type of series: functional, cell-based.
The nature of series [10]: Antitumor activity against human H460 cells xenografted in nude mouse assessed as tumor growth inhibition at 30 mg/kg,iv qd administered for 6 days measured on day 15 relative to control. Type of series: functional, NCI-H460. In general terms: Xenograft models place foreign cells or tissue in a host animal.
The next series has as its system NCI-H460. As to the kind of experiment: Antitumor activity against human H460 cells xenografted in nude mouse assessed as survival at 30 mg/kg,iv qd administered for 6 days. Type of series: functional, organism-based. More on the design: dose 30 mg/kg.
For series [11], the system named is Mus musculus. Briefly: Toxicity in nude mouse xenografted with human HCT116 cells assessed as body weight loss at 30 mg/kg,iv qd administered for 6 days measured on day 13 relative to control. It counts as organism-based, HCT-116. More on the design: dose 30 mg/kg. As to conditions: in vivo, 144 h.
For series [12], the system named is Mus musculus. As to the kind of experiment: Toxicity in nude mouse xenografted with human PC3 cells assessed as body weight loss at 40 mg/kg,iv administered every 2 days for 5 doses measured on day 13 relative to control. Type of series: organism-based, PC-3. As to conditions: in vivo, 48 h. The arrangement: dose 40 mg/kg.
The test system of series [13] is Mus musculus. Briefly: Toxicity in nude mouse xenografted with human PC3 cells assessed as change in body weight at 40 mg/kg,iv administered every 2 days for 5 doses measured on day 38 relative to control. It counts as organism-based, PC-3. More on the design: dose 40 mg/kg. The conditions noted are these: in vivo, 48 h.
Series [14] is described as follows: Antitumor activity against human HCT116 cells xenografted in nude mouse assessed as tumor growth inhibition at 30 mg/kg,iv qd administered for 6 days measured on day 31 relative to control. It counts as functional. As to conditions: HCT-116, iv, read-out: TGI.
The nature of series [15]: Acute toxicity in iv dosed mouse administered for 14 days. It counts as organism-based. As to conditions: in vivo.
Series [16] relates to Mus musculus. Briefly: Toxicity in nude mouse xenografted with human HCT116 cells assessed as change in body weight at 30 mg/kg,iv qd administered for 6 days measured on day 31 relative to control. It counts as organism-based, HCT-116. As to conditions: in vivo, 144 h. The arrangement: dose 30 mg/kg.
Series [17] in a line: Toxicity in mouse. It counts as organism-based. The conditions noted are these: in vivo.
Another series deals with HCT-116. As to the kind of experiment: Antitumor activity against human HCT116 cells xenografted in nude mouse assessed as survival at 30 mg/kg,iv qd administered for 6 days. It counts as functional, organism-based. More on the design: dose 30 mg/kg.
Series [18] can be described thus: Antitumor activity against human H460 cells xenografted in nude mouse assessed as tumor growth inhibition at 30 mg/kg,iv qd administered for 6 days measured on day 37 relative to control. Type of series: functional. As to conditions: NCI-H460, iv, read-out: TGI.
A short description of series [19]: Antitumor activity against human PC3 cells xenografted in nude mouse assessed as tumor growth inhibition at 40 mg/kg,iv administered every 2 days for 5 doses measured on day 28 to 31 relative to control. It counts as functional, PC-3.
Series [20] relates to Mus musculus. Briefly: Toxicity in nude mouse xenografted with human H460 cells assessed as body weight loss at 30 mg/kg,iv qd administered for 6 days measured on day 15 relative to control. More on the design: dose 30 mg/kg. As to conditions: in vivo, 144 h. Type of series: organism-based.
Series [21] is described as follows: Antitumor activity against human HCT116 cells xenografted in nude mouse assessed as tumor growth inhibition at 30 mg/kg,iv qd administered for 6 days measured on day 15 relative to control. It counts as functional, HCT-116.
Series [22] is described as follows: Antitumor activity against human PC3 cells xenografted in nude mouse assessed as tumor growth inhibition at 40 mg/kg,iv administered every 2 days for 5 doses measured on day 38 relative to control. As to conditions: PC-3, iv, read-out: TGI. Type of series: functional.
The test system of series [23] is Mus musculus. Briefly: Toxicity in nude mouse xenografted with human H460 cells assessed as body weight loss at 30 mg/kg,iv qd administered for 6 days measured on day 37 relative to control. It counts as organism-based. The arrangement: dose 30 mg/kg. As to conditions: in vivo, 144 h.
The next series concerns H3347. As to the kind of experiment: Antitumor activity against human H3347 cells xenografted in nude mouse assessed as survival at 30 mg/kg,iv qd administered for 6 days. Type of series: functional, organism-based. The arrangement: dose 30 mg/kg.
Series [24] in a line: Antitumor activity against human H3347 cells xenografted in nude mouse assessed as tumor growth inhibition at 30 mg/kg,iv qd administered for 6 days measured on day 31 relative to control. Type of series: functional. As to conditions: read-out: TGI.
Series [25] deals with Mus musculus. Briefly: Toxicity in nude mouse xenografted with human H3347 cells assessed as body weight loss at 30 mg/kg,iv qd administered for 6 days. The arrangement: dose 30 mg/kg. As to conditions: in vivo, 144 h. It counts as organism-based.
A short description of series [26]: Antitumor activity against human H3347 cells xenografted in nude mouse assessed as tumor growth inhibition at 30 mg/kg,iv qd administered for 6 days measured on day 16 relative to control. Type of series: functional.
The test system of series [27] is Mus musculus. As to the kind of experiment: Toxicity in nude mouse xenografted with human H3347 cells assessed as change in body weight at 30 mg/kg,iv qd administered for 6 days measured on day 31 relative to control. Type of series: organism-based. More on the design: dose 30 mg/kg. The conditions noted are these: in vivo, 144 h.
Series [28] is described as follows: Induction of pEGFP-N1 DNA (unknown origin) interstand crosslinking after 2 hrs by alkaline agarose gel shift assay.
For series [29], the system named is Mus musculus. Briefly: Toxicity in nude mouse xenografted with human HCT116 cells assessed as change in body weight at 30 mg/kg,iv qd administered for 6 days measured on day 30 relative to control. It counts as organism-based, HCT-116. More on the design: dose 30 mg/kg. As to conditions: in vivo, 144 h.
The nature of series [30]: Antitumor activity against human HCT116 cells xenografted in nude mouse assessed as tumor growth inhibition at 30 mg/kg,iv qd administered for 6 days measured on day 30 relative to control. Type of series: functional. The conditions noted are these: HCT-116, iv, read-out: TGI.
Series [31] can be described thus: Antitumor activity against human HCT116 cells xenografted in nude mouse assessed as tumor growth inhibition at 30 mg/kg,iv qd administered for 6 days measured on day 13 relative to control. Type of series: functional, HCT-116.

Molecules are shown by their SMILES. Calls of active or inactive are those of the source. The calls are words filed in the database; no cut-off is given here.

As to `O=C(CN1CCCC1)Nc1ccc(NC(=O)Nc2ccc(N(CCCl)CCCl)cc2)cc1`, the IC50 worked out at 0.95 µM in [1]; 12.3 µM in the series with HT-29; 1.53 µM in series [2]; 0.26 µM in the series on CCRF-CEM [3]; 4.37 µM in series [4]; 3.41 µM in series [6]. In addition, the values for the 50% inhibitory concentration (IC50) (with CCRF-CEM [7]; in series [8]; in [9]) were 2 µM, 1.33 µM and 3.52 µM, respectively. The “Ratio IC50” value in the series on CCRF-CEM [5] worked out at 7.69.
Consider `CN(C)CCNC(=O)c1cccc(NC(=O)Nc2ccc(N(CCCl)CCCl)cc2)c1`, for which the half-inhibitory concentration (IC50) in series [1] was 38.3 µM; in series [6], 14.8 µM; in the series with CCRF-CEM [7], 1.05 µM; in series [8], 4.85 µM; in series [9], 17.6 µM. Also, the “%max” value is 17% in series [10]; -16% in the series on Mus musculus [12]; 94% in [19]; -16% in the series on Mus musculus [20]; 81% in series [21]. The result in the series with NCI-H460 and in the series on HCT-116 was Active. Besides, the “body weight change relative to control” value in the series with Mus musculus [11] is -7%. Further, the Activity in the series with Mus musculus [13] is recorded as -2%; in the series on Mus musculus [16], 0%; in the series with Mus musculus [23] it was -6%. Moreover, the inhibition in vivo at 30 mg/kg in series [14] stood at 79%; in series [18], 8%. Also, the “Ratio IC50” value with CCRF-CEM [5] is 0.85. The compound further had an LD50 at 336 h in series [15] of 76 mg/kg. In [17], the MTD was found to be 30 mg/kg. Further, the inhibition in vivo at 40 mg/kg in series [22] came to 89%.
`O=C(CCN1CCCC1)Nc1ccc(NC(=O)Nc2ccc(N(CCCl)CCCl)cc2)cc1`: the IC50 in [1] came to 1.03 µM; in the series with HT-29, 14.1 µM; in series [2], 3.68 µM; with CCRF-CEM [3] it was 0.28 µM; in [4], 13.9 µM; in [6] it was 6.43 µM. Further, the IC50 with CCRF-CEM [7] came to 17.1 µM; in series [8], 2.87 µM; in series [9], 3.48 µM. Further, the “Ratio IC50” value in the series on CCRF-CEM [5] is reported as 61.14.
Regarding `CCc1c2c(nc3ccc(OC(=O)N4CCC(N5CCCCC5)CC4)cc13)-c1cc3c(c(=O)n1C2)COC(=O)[C@]3(O)CC` [IRINOTECAN], in the series on Mus musculus [11], the “body weight change relative to control” value is reported as -3%. Also, the result in the series with H3347 and with HCT-116 was Active. The IC50 was 82.8 µM in the series on HT-29, 7.53 µM in series [2] and 25.1 µM in [4]. Also, the inhibition in vivo at 30 mg/kg in [14] is 85%; in [24] it was 90%. For the same compound, the Activity in the series with Mus musculus [16] and with Mus musculus [27] was 8% each time. Also, the “%max” value in the series with Mus musculus [25] came out at 0%; in [26] it was 90%; in series [21], 92%.
Regarding `CCN(CC)CCC(=O)Nc1ccc(NC(=O)Nc2ccc(N(CCCl)CCCl)cc2)cc1`, the IC50 came to 1.83 µM in series [1]; 19.3 µM in the series on HT-29; 1.03 µM in series [2]; 0.3 µM with CCRF-CEM [3]; 7.82 µM in series [4]; 10.3 µM in series [6]. Also, the results for the IC50 (in the series with CCRF-CEM [7]; in [8]; in series [9]) were 8.27 µM, 3.08 µM and 2.47 µM, respectively. In addition, the “Ratio IC50” value in the series on CCRF-CEM [5] turned out to be 27.57.
With `CN(C)CC(=O)Nc1ccc(NC(=O)Nc2ccc(N(CCCl)CCCl)cc2)cc1`, the IC50 was found to be 1.21 µM in series [1]; 20.1 µM in the series with HT-29; 1.53 µM in series [2]; 0.29 µM in the series on CCRF-CEM [3]; 5.76 µM in series [4]; 5.36 µM in series [6]. Besides, the IC50 in the series with CCRF-CEM [7] was 1.34 µM; in series [8], 0.85 µM; in series [9] it was 7.33 µM. Besides, the “body weight change relative to control” value in the series with Mus musculus [11] is listed as -3%. Further, the Activity result in series [28] was “Dose-dependent effect”; with Mus musculus [29], 3%. Besides, the “Ratio IC50” value in the series with CCRF-CEM [5] was found to be 4.62. For the same compound, the outcome with HCT-116 was Active. Moreover, the inhibition in vivo at 30 mg/kg in [30] was 51%. Besides, the “%max” value in [31] was 72%.

As usually defined, the IC50 is the concentration that inhibits the measured activity by half. By LD50 is commonly meant the dose at which mortality reaches 50%. A low value points to a more toxic substance.

(Values after ChEMBL document CHEMBL3351946, “Design and synthesis of potent antitumor water-soluble phenyl N-mustard-benzenealkylamide conjugates via a bioisostere approach” (Eur J Med Chem, 2014).)
